Experimental data reported in PubChem BioAssay (NCI).
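48-hour exposure; five concentrations; linearly interpolated endpoints. Abbreviation: GI50, concentration required for 50% inhibition of growth. Definition used: TGI = concentration required for complete inhibition of growth.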

Experiments:
Assay in all cases: NCI anticancer screen, dose series, 48 h
[1] = tested on: SK-MEL-2 melanoma
[2] = tested on: SNB-19 CNS
[3] = tested on: OVCAR-4 ovarian
[4] = tested on: NCI-H226 lung
[5] = tested on: SF-268 CNS
[6] = tested on: ACHN renal
[7] = tested on: KM12 colon
[8] = tested on: TK-10 renal
[9] = tested on: CAKI-1 renal
[10] = tested on: RPMI-8226 leukemia
[11] = tested on: MDA-MB-231 breast
[12] = tested on: RXF 393 renal
[13] = tested on: NCI-H23 lung
[14] = tested on: U251 CNS
[15] = tested on: SN12C renal
[16] = tested on: T-47D breast
[17] = tested on: SW-620 colon
[18] = tested on: SK-MEL-28 melanoma
[19] = tested on: SF-539 CNS
[20] = tested on: SK-MEL-5 melanoma
[21] = tested on: UACC-62 melanoma
[22] = tested on: MDA-MB-435
[23] = tested on: PC-3 prostate
[24] = tested on: A498 renal
[25] = tested on: DU-145 prostate
[26] = tested on: 786-0 renal
[27] = tested on: EKVX NSCLC
[28] = tested on: MCF7 breast
[29] = tested on: NCI-H522 lung
[30] = tested on: UACC-257 melanoma
[31] = tested on: SF-295 CNS
[32] = tested on: MALME-3M melanoma
[33] = tested on: HOP-62 NSCLC
[34] = tested on: HCT-116 colon
[35] = tested on: UO-31 renal
[36] = tested on: A549 NSCLC
[37] = tested on: HCC-2998 colon
[38] = tested on: HL-60(TB) leukemia
[39] = tested on: HOP-92 NSCLC
[40] = tested on: OVCAR-8 ovarian
[41] = tested on: COLO 205 colon
[42] = tested on: BT-549 breast
[43] = tested on: MOLT-4 leukemia
[44] = tested on: K-562 leukemia
[45] = tested on: LOX IMVI melanoma
[46] = tested on: HT29 colon
[47] = tested on: SK-OV-3 ovarian
[48] = tested on: OVCAR-5 ovarian
[49] = tested on: HCT-15 colon
[50] = tested on: IGROV1 ovarian
[51] = tested on: SNB-75 CNS
[52] = tested on: OVCAR-3 ovarian
[53] = tested on: NCI/ADR-RES ovarian
[54] = tested on: NCI-H460 lung
[55] = tested on: M14 melanoma
[56] = tested on: SR leukemia
[57] = tested on: HS 578T breast
[58] = tested on: CCRF-CEM leukemia

Structure (SMILES): Cc1ccc(NC(=O)c2cccc(N(C)C)c2)cc1NC(=O)c1ccc(O)cc1
- GI50 [1]: 14.1 µM
- TGI [1]: 39.2 µM
- GI50 [2]: 51.1 µM
- TGI [2]: > 100 µM
- GI50 [3]: 38.6 µM
- TGI [3]: > 100 µM
- GI50 [4]: > 71.4 µM
- TGI [4]: > 100 µM
- GI50 [5]: 44.6 µM
- TGI [5]: > 100 µM
- GI50 [6]: > 63.6 µM
- TGI [6]: > 100 µM
- GI50 [7]: 54.9 µM
- TGI [7]: > 100 µM
- GI50 [8]: > 70 µM
- TGI [8]: > 100 µM
- GI50 [9]: 52.8 µM
- TGI [9]: > 100 µM
- GI50 [10]: > 63.1 µM
- TGI [10]: > 100 µM
- GI50 [11]: 33 µM
- TGI [11]: > 93.6 µM
- GI50 [12]: 38 µM
- TGI [12]: > 66.1 µM
- GI50 [13]: > 61.9 µM
- TGI [13]: > 100 µM
- GI50 [14]: > 68.8 µM
- TGI [14]: > 100 µM
- GI50 [15]: 55 µM
- TGI [15]: > 100 µM
- GI50 [16]: > 48.7 µM
- TGI [16]: > 79.2 µM
- GI50 [17]: > 75.5 µM
- TGI [17]: > 100 µM
- GI50 [18]: > 50.1 µM
- TGI [18]: > 100 µM
- GI50 [19]: 41 µM
- TGI [19]: > 100 µM
- GI50 [20]: 28.5 µM
- TGI [20]: > 65.8 µM
- GI50 [21]: 34 µM
- TGI [21]: 99.4 µM
- GI50 [22]: 52.3 µM
- TGI [22]: > 100 µM
- GI50 [23]: > 61.7 µM
- TGI [23]: > 100 µM
- GI50 [24]: > 83.6 µM
- TGI [24]: > 100 µM
- GI50 [25]: 62.6 µM
- TGI [25]: > 100 µM
- GI50 [26]: > 71.5 µM
- TGI [26]: > 100 µM
- GI50 [27]: > 79.7 µM
- TGI [27]: > 100 µM
- GI50 [28]: 52 µM
- TGI [28]: > 100 µM
- GI50 [29]: 37.1 µM
- TGI [29]: > 88.2 µM
- GI50 [30]: > 68.2 µM
- TGI [30]: > 100 µM
- GI50 [31]: 37.6 µM
- TGI [31]: > 100 µM
- GI50 [32]: > 75.9 µM
- TGI [32]: > 100 µM
- GI50 [33]: 54.2 µM
- TGI [33]: > 100 µM
- GI50 [34]: > 59.4 µM
- TGI [34]: > 100 µM
- GI50 [35]: > 73.4 µM
- TGI [35]: > 100 µM
- GI50 [36]: 61.4 µM
- TGI [36]: > 100 µM
- GI50 [37]: 74.8 µM
- TGI [37]: > 100 µM
- GI50 [38]: 46.3 µM
- TGI [38]: > 100 µM
- GI50 [39]: > 52.7 µM
- TGI [39]: > 100 µM
- GI50 [40]: 53.2 µM
- TGI [40]: > 100 µM
- GI50 [41]: > 64.7 µM
- TGI [41]: > 100 µM
- GI50 [42]: > 64 µM
- TGI [42]: > 100 µM
- GI50 [43]: > 72.4 µM
- TGI [43]: > 100 µM
- GI50 [44]: 42.7 µM
- TGI [44]: > 100 µM
- GI50 [45]: > 62 µM
- TGI [45]: > 100 µM
- GI50 [46]: > 57.3 µM
- TGI [46]: > 100 µM
- GI50 [47]: 65.7 µM
- TGI [47]: > 100 µM
- GI50 [48]: > 82.4 µM
- TGI [48]: > 100 µM
- GI50 [49]: 53.3 µM
- TGI [49]: > 100 µM
- GI50 [50]: > 85.8 µM
- TGI [50]: > 100 µM
- GI50 [51]: 26.3 µM
- TGI [51]: > 81.8 µM
- GI50 [52]: 67.3 µM
- TGI [52]: > 100 µM
- GI50 [53]: > 72 µM
- TGI [53]: > 100 µM
- GI50 [54]: 45.2 µM
- TGI [54]: > 100 µM
- GI50 [55]: > 64.6 µM
- TGI [55]: > 100 µM
- GI50 [56]: 31.5 µM
- TGI [56]: > 100 µM
- GI50 [57]: 63.6 µM
- TGI [57]: > 100 µM
- GI50 [58]: 16.6 µM
- TGI [58]: > 100 µM
